# From patent US9248088B2, “Compositions and methods for skin conditioning” (TELOMERASE ACTIVATION SCIENCES, INC., priority 2003, dated 2016)
# Like-named read-outs stand apart in the source and are kept apart here.
# Legend:
# [1] = tested on: aging neonatal keratinocytes; test: scratch assay (cell reconfluence), aging neonatal keratinocytes; type: cell-based, human; conditions: FIG. 7; compared with 50 ng/mL PDGF
# Protocol: (§1) As used herein, “as measured in a scratch assay” refers to measurement of cell reconfluence in keratinocytes or fibroblasts according to the following protocol, and expressed as the value of SC shown in the formula below. Cells are plated in flasks ((5×10^5 cells per flask) and cultured for two days in a humidified chamber at 5% CO2, 37° C. A 2 ml plastic pipette is gently dragged thought the culture to “scratch” the cell surface. The ideal scratch is approximately 2-3 mm wide and 50 mm long (along the long axis of the tissue culture flask). The cells are retreated with medium containing either vehicle (control sample) or test compositions at multiple dilutions. A scratch area is identified, the flask marked, and the appearance of the cells documented photographically over 3-4 days continued culturing of the cells. Amount of cell reconfluence, or closure of the scratch, is determined by measuring width of the scratch over time for compound-treated samples relative to vehicle-treated or other control cells. […] Percentage of closure is calculated by the following formula: SC=100−[100×Wn/W0], where Wn is the width of the scratch on day n and W0 is the width of the scratch on day one (i.e. immediately after scratching).
# [2] = tested on: telomerase activity in HEKneoP cells (neonatal keratinocytes); test: TRAP assay of telomerase activity in neonatal keratinocytes; type: cell-based, human; conditions: for MEC (minimum effective concentration producing telomerase activity twice that of DMSO control): HEKneoP cells, 100% greater than DMSO control; for telomerase activity (result in words): neonatal keratinocytes / normal cells
# [3] = tested on: aging adult keratinocytes; test: scratch assay (cell reconfluence), aging adult keratinocytes; type: cell-based, human; conditions: for Approx. scratch width (arbitrary units) Day 1 test: 0.1 μg/ml (about 0.13 μM) 1
# Protocol: As used herein, “as measured in a scratch assay” refers to measurement of cell reconfluence in keratinocytes or fibroblasts according to the following protocol, and expressed as the value of SC shown in the formula below. Cells are plated in flasks ((5×10^5 cells per flask) and cultured for two days in a humidified chamber at 5% CO2, 37° C. A 2 ml plastic pipette is gently dragged thought the culture to “scratch” the cell surface. The ideal scratch is approximately 2-3 mm wide and 50 mm long (along the long axis of the tissue culture flask). The cells are retreated with medium containing either vehicle (control sample) or test compositions at multiple dilutions. A scratch area is identified, the flask marked, and the appearance of the cells documented photographically over 3-4 days continued culturing of the cells. Amount of cell reconfluence, or closure of the scratch, is determined by measuring width of the scratch over time for compound-treated samples relative to vehicle-treated or other control cells. […] Percentage of closure is calculated by the following formula: SC=100−[100×Wn/W0], where Wn is the width of the scratch on day n and W0 is the width of the scratch on day one (i.e. immediately after scratching). […] Briefly, a scratch, typically about 2-3 mm in width, is created through a mass of plated cells, and the time needed for the cells to become confluent is observed. […] (GRN163 is a telomerase inhibitor oligonucleotide that targets the template region of the telomerase RNA component. Specifically, GRN163 is a 13-mer N3′→P5′ thiophosphoramidate oligonucleotide, described in detail in PCT Pubn. No. WO 01/18015. GRN137227 is a 13-mer N3′→P5′ thiophosphoramidate control oligonucleotide having a mismatched sequence.)
# [4] = tested on: young neonatal keratinocytes; test: scratch assay (cell reconfluence), young neonatal keratinocytes; type: cell-based, human; conditions: FIG. 5, 2 at 0.01 μM; for SCtest (percentage of closure): SC=100-[100×Wn/W0]
# Protocol: as §1
# [5] = type: in vitro ADME; conditions: human
# Protocol: J. Franz et al., Abst. J Invest Dermatol 94:525, 1990). […] The receptor solution concentration (representing the inner surface of the skin) was then collected at predetermined intervals over 48 hours, to determine extent and rate of appearance of labeled compound.
compound,measurement,setting,value
"CC(C)(O)[C@@H]1CC[C@](C)([C@H]2[C@@H](O)C[C@@]3(C)[C@@H]4C[C@H](O[C@@H]5O[C@H](CO)[C@@H](O)[C@H](O)[C@H]5O)[C@H]5C(C)(C)[C@@H](O[C@@H]6OC[C@@H](O)[C@H](O)[C@H]6O)CC[C@@]56C[C@@]46CC[C@]23C)O1 [Compound 1, astragaloside IV]",promotion of cell reconfluence,[1],comparable to that of PDGF
same,MEC (minimum effective concentration producing telomerase activity twice that of DMSO control),[2],0.01 µM
same,telomerase activity,"[2]; at 1.0 μM, maximum of the concentration series",about 360 % of control
same,telomerase activity (result in words),[2],increase in telomerase activity
same,SCtest (percentage of closure),"[3]; FIG. 4, 0.1 μg/ml 1, SC=100-[100×Wn/W0]",100%
same,Approx. scratch width (arbitrary units) Day 1 test,"[3]; FIG. 4, first 'Day 1 test' column",17 arbitrary units
same,Approx. scratch width (arbitrary units) Day 1 test,"[3]; FIG. 4, second 'Day 1 test' column",0 arbitrary units
same,confluence of treated cells,"[3]; FIG. 4, 0.1 μg/ml (about 0.13 μM), versus control cells at day 4",confluent at day 4
same,cell proliferation,"[3]; FIG. 6, 1 alone",promotion of cell proliferation
same,SCtest (percentage of closure),[4],100%
same,Approx. scratch width (arbitrary units) Day 1 test,[4]; first 'Day 1 test' column,18 arbitrary units
same,Approx. scratch width (arbitrary units) Day 1 test,[4]; second 'Day 1 test' column,0 arbitrary units
"CC(C)(O)[C@@H]1CC[C@](C)([C@H]2[C@@H](O)C[C@@]3(C)[C@@H]4C[C@H](O)[C@H]5C(C)(C)[C@@H](O)CC[C@@]56C[C@@]46CC[C@]23C)O1 [Compound 2, cycloastragenol]",total delivery over 48 hours,[5]; 0.01 wt %,~66 ng
same,total delivery over 48 hours,[5]; 0.25 wt %,~600 ng
same,MEC (minimum effective concentration producing telomerase activity twice that of DMSO control),[2],0.01 µM
same,telomerase activity,"[2]; at 0.1 μM, maximum of the concentration series",about 300 % of control
same,telomerase activity (result in words),[2],increase of telomerase activity
same,SCtest (percentage of closure),[4],90.5%
same,Approx. scratch width (arbitrary units) Day 1 test,[4]; first 'Day 1 test' column,21 arbitrary units
same,Approx. scratch width (arbitrary units) Day 1 test,[4]; second 'Day 1 test' column,2 arbitrary units
"CC(C)(O)[C@@H]1CC[C@](C)([C@H]2[C@@H](O)C[C@@]3(C)[C@@H]4C[C@H](O)[C@H]5C(C)(C)[C@@H](O)CC[C@]5(C)C4=CC[C@]23C)O1 [Compound 3, astragenol]",MEC (minimum effective concentration producing telomerase activity twice that of DMSO control),[2],0.03 µM
"CC(C)(O)[C@@H]1CC[C@](C)([C@H]2[C@@H](O)C[C@@]3(C)[C@@H]4CC=C5C(=CC[C@H](O)C5(C)C)[C@]4(C)CC[C@]23C)O1 [Compound 5, 20R,24S-epoxy-3β,16β,25-trihydroxy-9β-methyl-19-norlanost-1,5-diene]",MEC (minimum effective concentration producing telomerase activity twice that of DMSO control),[2],0.10 µM
"CC(C)(O)[C@@H]1CC[C@](C)([C@H]2[C@@H](O)C[C@@]3(C)[C@@H]4C[C@H](OC5O[C@H](CO)[C@@H](O)[C@H](O)[C@H]5O)[C@H]5C(C)(C)[C@@H](O)CC[C@@]56C[C@@]46CC[C@]23C)O1 (stereo partly drawn) [Compound 6, cycloastragenol 6-β-D-glucopyranoside]",MEC (minimum effective concentration producing telomerase activity twice that of DMSO control),[2],3.2 µM
"CC(C)(O)[C@@H]1CC[C@](C)([C@H]2[C@@H](O)C[C@@]3(C)[C@@H]4C[C@H](O)[C@H]5C(C)(C)[C@@H](OC6OC[C@@H](O)[C@H](O)[C@H]6O)CC[C@@]56C[C@@]46CC[C@]23C)O1 (stereo partly drawn) [Compound 7, cycloastragenol 3-β-D-xylopyranoside]",MEC (minimum effective concentration producing telomerase activity twice that of DMSO control),[2],3.2 µM
"CC(C)=CCC[C@](C)(O)[C@H]1CC[C@]2(C)[C@@H]1[C@H](O)C[C@@H]1[C@@]3(C)CC[C@H](O)C(C)(C)[C@@H]3[C@@H](O[C@@H]3O[C@H](CO)[C@@H](O)[C@H](O)[C@H]3O)C[C@]12C [Compound 8, ginsenoside RH1]",MEC (minimum effective concentration producing telomerase activity twice that of DMSO control),[2],10 µM
"EGF: EGF (epidermal growth factor), used at 10 nM as comparison in the TRAP assay [reference compound]",telomerase activity,[2]; cells treated with 10 nM EGF,about 200%
astragaloside IV 16-one [Compound 4],MEC (minimum effective concentration producing telomerase activity twice that of DMSO control),[2],0.03 µM
